Results as given in publication PMC5296751, “N,N Dimethylacetamide a drug excipient that acts as bromodomain ligand for osteoporosis treatment” (Scientific Reports, 2017).

How the values were obtained:
BRD2 = BRD2 (Homo sapiens, UniProt P25440); experiment: AlphaScreen binding inhibition assay with recombinant human BRD2
BRD4 = target: T1, BRD4 (Homo sapiens, UniProt O60885); experiment: X-ray crystal structure at […] Å (soaked crystals); IC50 from AlphaScreen; type: binding
T1 construct: residues 42–168, BRD4-BD1 (N-terminal bromodomain)

Sequence of BRD2 (P25440 whole entry): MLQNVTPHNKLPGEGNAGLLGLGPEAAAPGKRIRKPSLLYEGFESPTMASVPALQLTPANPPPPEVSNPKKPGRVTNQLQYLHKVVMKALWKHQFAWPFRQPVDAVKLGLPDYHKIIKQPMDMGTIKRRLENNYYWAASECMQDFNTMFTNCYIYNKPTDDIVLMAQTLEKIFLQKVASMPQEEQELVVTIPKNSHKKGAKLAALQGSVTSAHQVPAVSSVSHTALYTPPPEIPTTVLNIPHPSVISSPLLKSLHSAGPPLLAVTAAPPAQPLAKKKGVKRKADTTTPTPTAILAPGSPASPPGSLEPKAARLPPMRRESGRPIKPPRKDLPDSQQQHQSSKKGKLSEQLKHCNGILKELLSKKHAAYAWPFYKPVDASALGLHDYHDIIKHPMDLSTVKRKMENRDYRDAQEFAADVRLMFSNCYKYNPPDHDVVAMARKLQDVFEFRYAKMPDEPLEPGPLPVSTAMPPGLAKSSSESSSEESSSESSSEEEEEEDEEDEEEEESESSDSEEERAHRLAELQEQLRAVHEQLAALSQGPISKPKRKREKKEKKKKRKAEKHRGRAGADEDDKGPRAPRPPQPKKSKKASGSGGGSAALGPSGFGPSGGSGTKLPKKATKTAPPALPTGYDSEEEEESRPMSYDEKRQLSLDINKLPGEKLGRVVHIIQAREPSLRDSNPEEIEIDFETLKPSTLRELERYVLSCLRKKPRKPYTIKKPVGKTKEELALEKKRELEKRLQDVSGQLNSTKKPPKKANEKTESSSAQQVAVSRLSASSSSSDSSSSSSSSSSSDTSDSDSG

CC(=O)N(C)C [DMA, N,N-Dimethylacetamide]
IC50 (BRD2): 11 mM
IC50 (BRD4): 6 mM
